Where “and” joins values, the source holds several entries; their conditions need not be identical. Equal values may be shown once. Positions of bridges follow the written chain, without caps; N, C: chain ends. Non-standard residues stand in square brackets, D forms with d. Residues, ends and D or L forms follow the SMILES beside them. Chains are numbered I, II in the order given. *: point of attachment. Phe(4-NH2) = Nc1ccc(C[C@H](N)C(=O)O)cc1; X1 = NOCC(=O)*
Tests used:
human insulin receptor = biological target: T1, human insulin receptor (Homo sapiens, UniProt P06213); test: Insulin receptor binding assay (scintillation proximity competition); conditions: for % Activity of Insulin: Table 3A, in vitro binding
T1 construct: expressed in transfected cells; plasma membrane fragments
T1 sequence (P06213 28-758 limits assumed): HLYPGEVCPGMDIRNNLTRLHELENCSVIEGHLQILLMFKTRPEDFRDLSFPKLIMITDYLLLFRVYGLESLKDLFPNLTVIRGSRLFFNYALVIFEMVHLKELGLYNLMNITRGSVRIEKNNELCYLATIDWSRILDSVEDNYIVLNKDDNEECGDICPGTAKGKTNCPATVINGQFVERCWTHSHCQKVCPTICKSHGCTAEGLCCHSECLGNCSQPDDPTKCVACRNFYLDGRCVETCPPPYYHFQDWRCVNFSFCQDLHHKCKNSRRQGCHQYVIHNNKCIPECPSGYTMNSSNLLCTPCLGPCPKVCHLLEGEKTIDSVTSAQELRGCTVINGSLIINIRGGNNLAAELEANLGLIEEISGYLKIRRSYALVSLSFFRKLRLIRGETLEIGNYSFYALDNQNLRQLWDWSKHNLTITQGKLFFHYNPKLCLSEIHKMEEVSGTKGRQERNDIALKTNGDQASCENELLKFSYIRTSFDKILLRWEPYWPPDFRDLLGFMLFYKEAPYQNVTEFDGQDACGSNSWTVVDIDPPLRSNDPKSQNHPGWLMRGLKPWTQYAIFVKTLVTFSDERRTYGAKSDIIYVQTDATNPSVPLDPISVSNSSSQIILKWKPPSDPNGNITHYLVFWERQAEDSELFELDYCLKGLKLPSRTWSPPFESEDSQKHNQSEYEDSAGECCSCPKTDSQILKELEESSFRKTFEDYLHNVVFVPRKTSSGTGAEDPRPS
T1 sequence (P06213 763-1382 partner limits assumed): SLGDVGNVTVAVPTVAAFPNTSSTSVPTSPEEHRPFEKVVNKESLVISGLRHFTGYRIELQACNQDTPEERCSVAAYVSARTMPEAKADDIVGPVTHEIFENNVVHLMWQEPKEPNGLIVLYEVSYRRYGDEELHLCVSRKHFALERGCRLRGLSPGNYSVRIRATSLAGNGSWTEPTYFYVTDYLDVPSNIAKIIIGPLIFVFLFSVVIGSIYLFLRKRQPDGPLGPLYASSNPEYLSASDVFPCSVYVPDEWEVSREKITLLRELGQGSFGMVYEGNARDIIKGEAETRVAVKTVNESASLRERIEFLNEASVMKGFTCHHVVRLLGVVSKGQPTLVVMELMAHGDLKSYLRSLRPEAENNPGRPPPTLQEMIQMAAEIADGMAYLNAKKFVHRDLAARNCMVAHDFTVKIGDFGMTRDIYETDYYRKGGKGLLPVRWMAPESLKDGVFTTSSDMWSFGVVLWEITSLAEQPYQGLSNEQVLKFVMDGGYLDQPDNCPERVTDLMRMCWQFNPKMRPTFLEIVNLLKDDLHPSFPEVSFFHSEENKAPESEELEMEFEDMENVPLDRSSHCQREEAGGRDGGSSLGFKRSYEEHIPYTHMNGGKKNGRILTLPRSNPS

[1] = biological target: T2, insulin receptor (receptor transfected HEK293 cells) (Homo sapiens, UniProt P06213); test: Insulin receptor phosphorylation assay; type: cell-based; conditions: for % Activity of Insulin: Table 3B, in vitro phosphorylation
T2 construct: expressed in transfected cells; host or cells: HEK293
T2 sequence (P06213 28-758 limits assumed): as the sequence (P06213 28-758 limits assumed) above
T2 sequence (P06213 763-1382 partner limits assumed): as the sequence (P06213 763-1382 partner limits assumed) above

IGF-1 Receptor [2] = biological target: T3, IGF-1 Receptor (Homo sapiens, UniProt P08069); test: IGF-1 receptor phosphorylation assay; type: cell-based; set-up: expressed in transfected cells; host or cells: HEK293; conditions: Table 10
T3 sequence (P08069 31-736 limits assumed): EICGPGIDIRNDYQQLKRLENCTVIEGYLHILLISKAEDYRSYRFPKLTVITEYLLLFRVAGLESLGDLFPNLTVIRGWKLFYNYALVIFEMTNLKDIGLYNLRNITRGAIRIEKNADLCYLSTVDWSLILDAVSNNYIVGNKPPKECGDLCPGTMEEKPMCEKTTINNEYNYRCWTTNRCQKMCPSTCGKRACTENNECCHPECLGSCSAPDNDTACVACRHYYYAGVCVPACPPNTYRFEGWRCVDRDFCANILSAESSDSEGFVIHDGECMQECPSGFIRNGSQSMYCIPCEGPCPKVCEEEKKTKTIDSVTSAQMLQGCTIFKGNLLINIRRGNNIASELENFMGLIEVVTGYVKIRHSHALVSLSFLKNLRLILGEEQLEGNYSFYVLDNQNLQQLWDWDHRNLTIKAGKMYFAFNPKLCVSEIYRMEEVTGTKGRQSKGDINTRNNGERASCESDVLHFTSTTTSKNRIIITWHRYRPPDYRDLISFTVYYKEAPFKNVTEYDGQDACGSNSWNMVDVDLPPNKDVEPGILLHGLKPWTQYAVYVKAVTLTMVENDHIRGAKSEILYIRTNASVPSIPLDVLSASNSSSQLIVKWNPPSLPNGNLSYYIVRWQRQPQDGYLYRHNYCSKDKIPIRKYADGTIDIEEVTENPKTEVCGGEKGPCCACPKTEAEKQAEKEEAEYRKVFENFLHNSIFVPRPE
T3 sequence (P08069 741-1367 partner limits assumed): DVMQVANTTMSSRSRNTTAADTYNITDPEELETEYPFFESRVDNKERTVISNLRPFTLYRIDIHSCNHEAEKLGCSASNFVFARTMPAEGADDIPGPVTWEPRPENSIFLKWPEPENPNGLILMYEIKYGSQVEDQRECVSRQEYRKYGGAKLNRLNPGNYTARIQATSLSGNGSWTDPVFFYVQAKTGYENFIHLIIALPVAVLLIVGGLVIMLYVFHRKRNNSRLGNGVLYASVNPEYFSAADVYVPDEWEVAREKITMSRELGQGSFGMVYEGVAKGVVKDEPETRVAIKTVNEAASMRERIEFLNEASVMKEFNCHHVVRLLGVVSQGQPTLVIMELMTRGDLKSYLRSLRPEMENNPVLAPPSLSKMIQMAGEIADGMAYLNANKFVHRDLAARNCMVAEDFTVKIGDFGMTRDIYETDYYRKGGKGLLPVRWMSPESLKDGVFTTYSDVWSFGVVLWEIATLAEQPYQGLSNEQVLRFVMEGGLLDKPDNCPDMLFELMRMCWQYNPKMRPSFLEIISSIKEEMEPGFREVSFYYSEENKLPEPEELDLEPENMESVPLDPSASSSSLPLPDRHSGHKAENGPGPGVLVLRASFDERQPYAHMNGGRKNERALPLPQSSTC

IGF-1 Receptor [3] = biological target: T3, IGF-1 Receptor; test: IGF-1 receptor binding assay (scintillation proximity competition); set-up: expressed in transfected cells; plasma membrane fragments; conditions: Table 9
C57/Blk mice = test: Comparative insulin tolerance test (blood glucose lowering) in mice; type: in vivo; conditions: C57 black mice
Excerpt: […]. […] […]. These in vivo results are consistent with the in vitro analysis.
[…]. […] […].

[4] = biological target: insulin A subtype receptor (IR-A) (Homo sapiens, UniProt P06213); test: Phosphorylation assay at insulin A subtype receptor; conditions: Table 14
insulin A subtype receptor (IR-A), sequence (P06213 28-1370 isoform P06213-2 limits assumed): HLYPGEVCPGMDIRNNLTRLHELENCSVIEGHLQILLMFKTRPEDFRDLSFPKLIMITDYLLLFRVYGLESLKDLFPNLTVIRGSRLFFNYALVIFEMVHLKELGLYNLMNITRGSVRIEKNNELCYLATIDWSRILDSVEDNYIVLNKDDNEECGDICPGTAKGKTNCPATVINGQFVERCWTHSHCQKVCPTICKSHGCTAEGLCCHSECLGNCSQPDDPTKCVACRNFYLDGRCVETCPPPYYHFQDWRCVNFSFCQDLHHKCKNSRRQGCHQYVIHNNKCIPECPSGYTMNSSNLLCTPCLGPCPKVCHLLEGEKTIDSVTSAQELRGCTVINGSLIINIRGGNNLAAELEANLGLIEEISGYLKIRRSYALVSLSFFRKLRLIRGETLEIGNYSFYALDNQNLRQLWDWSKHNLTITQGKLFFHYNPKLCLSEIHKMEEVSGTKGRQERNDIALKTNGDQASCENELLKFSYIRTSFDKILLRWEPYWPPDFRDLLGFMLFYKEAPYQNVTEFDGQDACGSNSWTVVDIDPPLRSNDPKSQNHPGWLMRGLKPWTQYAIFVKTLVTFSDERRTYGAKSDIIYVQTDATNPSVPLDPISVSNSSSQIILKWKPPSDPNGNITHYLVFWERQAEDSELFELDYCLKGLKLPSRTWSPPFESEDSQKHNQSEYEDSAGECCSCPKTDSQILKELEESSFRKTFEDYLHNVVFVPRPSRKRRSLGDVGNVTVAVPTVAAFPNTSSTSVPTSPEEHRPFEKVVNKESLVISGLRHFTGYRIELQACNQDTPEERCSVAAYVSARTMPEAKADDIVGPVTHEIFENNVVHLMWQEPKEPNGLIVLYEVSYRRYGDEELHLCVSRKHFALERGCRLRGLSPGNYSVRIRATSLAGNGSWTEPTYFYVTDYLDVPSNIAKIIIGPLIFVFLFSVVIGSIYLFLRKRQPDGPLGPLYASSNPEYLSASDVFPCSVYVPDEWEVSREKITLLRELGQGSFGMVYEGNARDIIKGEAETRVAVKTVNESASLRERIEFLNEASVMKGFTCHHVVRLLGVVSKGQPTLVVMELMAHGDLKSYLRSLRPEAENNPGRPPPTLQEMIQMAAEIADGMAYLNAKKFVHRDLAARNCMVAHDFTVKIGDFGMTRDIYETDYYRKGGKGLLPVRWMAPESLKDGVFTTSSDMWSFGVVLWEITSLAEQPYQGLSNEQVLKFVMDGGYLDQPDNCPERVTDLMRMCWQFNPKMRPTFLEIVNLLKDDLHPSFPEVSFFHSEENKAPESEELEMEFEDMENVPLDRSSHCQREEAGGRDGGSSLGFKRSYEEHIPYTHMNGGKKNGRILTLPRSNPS
insulin A subtype receptor (IR-A), sequence (P06213 763-1382 partner limits assumed): as the sequence (P06213 763-1382 partner limits assumed) above

[5] = biological target: insulin B subtype receptor (IR-B) (Homo sapiens, UniProt P06213); test: Phosphorylation assay at insulin B subtype receptor; conditions: Table 14
insulin B subtype receptor (IR-B), sequence (P06213 28-758 limits assumed): as the sequence (P06213 28-758 limits assumed) above
insulin B subtype receptor (IR-B), sequence (P06213 763-1382 partner limits assumed): as the sequence (P06213 763-1382 partner limits assumed) above

CC[C@H](C)[C@H](NC(=O)CN)C(=O)N[C@H](C(=O)N[C@@H](CC(=O)O)C(=O)N[C@@H](CCC(=O)O)C(=O)N[C@H]1CSSC[C@@H]2NC(=O)[C@H](CO)NC(=O)[C@H](C)NC(=O)[C@H](Cc3c[nH]cn3)NC(=O)[C@H](CSSC[C@H](NC(=O)[C@H](CC(C)C)NC(=O)[C@H](Cc3c[nH]cn3)NC(=O)[C@H](CCC(=O)O)NC(=O)[C@@H]3CCCN3C(=O)CN)C(=O)NCC(=O)N[C@@H](C)C(=O)N[C@@H](CC(=O)O)C(=O)N[C@@H](CC(C)C)C(=O)N[C@@H](C(C)C)C(=O)N[C@@H](CC(=O)O)C(=O)N[C@@H](C)C(=O)N[C@@H](CC(C)C)C(=O)N[C@@H](Cc3ccc(O)cc3)C(=O)N[C@@H](CC(C)C)C(=O)N[C@@H](C(C)C)C(=O)N[C@H](C(=O)NCC(=O)N[C@@H](CC(=O)O)C(=O)N[C@@H](C)C(=O)NCC(=O)N[C@@H](Cc3ccccc3)C(=O)N[C@@H](Cc3ccc(O)cc3)C(N)=O)CSSC[C@@H](C(=O)N[C@@H](CC(N)=O)C(=O)O)NC(=O)[C@H](Cc3ccc(O)cc3)NC(=O)[C@H](CC[S+](C)[O-])NC(=O)[C@H](CCC(=O)O)NC(=O)[C@H](CC(C)C)NC(=O)[C@H](CCCNC(=N)N)NC(=O)[C@H](CCCNC(=N)N)NC(=O)[C@H](CC(C)C)NC(=O)[C@H](CC(=O)O)NC2=O)NC1=O)C(C)C (stereo partly shown)
Insulin Receptor % insulin (in test) (human insulin receptor; Table 9): 400.7%

CC[C@H](C)[C@H](NC(=O)CN)C(=O)N[C@H](C(=O)N[C@@H](CC(=O)O)C(=O)N[C@@H](CCC(=O)O)C(=O)N[C@H]1CSSC[C@@H]2NC(=O)[C@H](CO)NC(=O)[C@H](C)NC(=O)[C@H](Cc3c[nH]cn3)NC(=O)[C@H](CSSC[C@H](NC(=O)[C@H](CC(C)C)NC(=O)[C@H](Cc3c[nH]cn3)NC(=O)[C@H](CCC(=O)O)NC(=O)[C@@H]3CCCN3C(=O)CN)C(=O)NCC(=O)N[C@@H](C)C(=O)N[C@@H](CC(=O)O)C(=O)N[C@@H](CC(C)C)C(=O)N[C@@H](C(C)C)C(=O)N[C@@H](CC(=O)O)C(=O)N[C@@H](C)C(=O)N[C@@H](CC(C)C)C(=O)N[C@@H](Cc3ccc(O)cc3)C(=O)N[C@@H](CC(C)C)C(=O)N[C@@H](C(C)C)C(=O)N[C@H](C(=O)NCC(=O)N[C@@H](CC(=O)O)C(=O)N[C@@H](CCCNC(=N)N)C(=O)NCC(=O)N[C@@H](Cc3ccccc3)C(=O)N[C@@H](Cc3ccc(O)cc3)C(N)=O)CSSC[C@@H](C(=O)N[C@@H](CC(N)=O)C(=O)O)NC(=O)[C@H](Cc3ccc(O)cc3)NC(=O)[C@H](CCSC)NC(=O)[C@H](CCC(=O)O)NC(=O)[C@H](CC(C)C)NC(=O)[C@H](CCCNC(=N)N)NC(=O)[C@H](CCCNC(=N)N)NC(=O)[C@H](CC(C)C)NC(=O)[C@H](CC(=O)O)NC2=O)NC1=O)C(C)C
Ratio (human insulin receptor; Table 9, IGF-1 receptor IC50 / insulin receptor IC50): 80.6
Insulin Receptor % Insulin ([1]; Table 10, listed as IGF-1 A (H8 A9 N21) B (H5D10Y16L17) DPI A-COOH): 840% and 1080%
IGF-1 Receptor % IGF (IGF-1 Receptor [2]): 181.395%
IGF-1 Receptor % IGF-1 (in test) (IGF-1 Receptor [3]): 12.9%

CC[C@H](C)[C@H](NC(=O)CN)C(=O)N[C@H](C(=O)N[C@@H](CC(=O)O)C(=O)N[C@@H](CCC(=O)O)C(=O)N[C@@H](C)C(=O)N[C@@H](C)C(=O)N[C@@H](Cc1ccccc1)C(=O)N[C@@H](CCCNC(=N)N)C(=O)N[C@@H](CO)C(=O)N[C@@H](C)C(=O)N[C@@H](CC(=O)O)C(=O)N[C@@H](CC(C)C)C(=O)N[C@@H](CCCNC(=N)N)C(=O)N[C@@H](CCCNC(=N)N)C(=O)N[C@@H](CC(C)C)C(=O)N[C@@H](CCC(=O)O)C(=O)N[C@@H](CCSC)C(=O)N[C@@H](Cc1ccc(NC(=O)[C@@H]2CCCN2C(=O)C(C)(C)N)cc1)C(=O)N[C@@H](C)C(=O)N[C@@H](C)C(N)=O)C(C)C [Aib Pro] (HELM PEPTIDE1{G.I.V.D.E.A.A.F.R.S.A.D.L.R.R.L.E.M.[O=C([C@H](Cc1ccc(N[*:3])cc1)N[*:1])[*:2]].A.A.[am]}|PEPTIDE2{[Aib].P}$PEPTIDE1,PEPTIDE2,19:R3-2:R2$$$V2.0)
Half Life, 20% Plasma/PBS: 2.1 h

CC[C@H](C)[C@H](NC(=O)CN)C(=O)N[C@H](C(=O)N[C@@H](CC(=O)O)C(=O)N[C@@H](CCC(=O)O)C(=O)N[C@@H](C)C(=O)N[C@@H](C)C(=O)N[C@@H](Cc1ccccc1)C(=O)N[C@@H](CCCNC(=N)N)C(=O)N[C@@H](CO)C(=O)N[C@@H](C)C(=O)N[C@@H](CC(=O)O)C(=O)N[C@@H](CC(C)C)C(=O)N[C@@H](CCCNC(=N)N)C(=O)N[C@@H](CCCNC(=N)N)C(=O)N[C@@H](CC(C)C)C(=O)N[C@@H](CCC(=O)O)C(=O)N[C@@H](CCSC)C(=O)N[C@@H](Cc1ccc(NC(=O)[C@H]2CCCN2C(=O)C(C)(C)N)cc1)C(=O)N[C@@H](C)C(=O)N[C@@H](C)C(N)=O)C(C)C [Aib dPro] (HELM PEPTIDE1{G.I.V.D.E.A.A.F.R.S.A.D.L.R.R.L.E.M.[O=C([C@H](Cc1ccc(N[*:3])cc1)N[*:1])[*:2]].A.A.[am]}|PEPTIDE2{[Aib].[dP]}$PEPTIDE1,PEPTIDE2,19:R3-2:R2$$$V2.0)
Half Life, 20% Plasma/PBS: 2.2 h

CC[C@H](C)[C@H](NC(=O)CNC(=O)[C@@H]1CCCN1C(=O)[C@H](C)N)C(=O)N[C@H](C(=O)N[C@@H](CC(=O)O)C(=O)N[C@@H](CCC(=O)O)C(=O)N[C@H]1CSSC[C@@H]2NC(=O)[C@H](CO)NC(=O)[C@H](CCCNC(=N)N)NC(=O)[C@H](Cc3ccccc3)NC(=O)[C@H](CSSC[C@H](NC(=O)[C@H](CC(C)C)NC(=O)[C@@H](NC(=O)[C@H](CCC(=O)O)NC(=O)[C@@H]3CCCN3C(=O)CN)[C@@H](C)O)C(=O)NCC(=O)N[C@@H](C)C(=O)N[C@@H](CCC(=O)O)C(=O)N[C@@H](CC(C)C)C(=O)N[C@@H](C(C)C)C(=O)N[C@@H](CC(=O)O)C(=O)N[C@@H](C)C(=O)N[C@@H](CC(C)C)C(=O)N[C@@H](Cc3ccc(O)cc3)C(=O)N[C@@H](CC(C)C)C(=O)N[C@@H](C(C)C)C(=O)N[C@H](C(=O)NCC(=O)N[C@@H](CC(=O)O)C(=O)N[C@@H](CCCNC(=N)N)C(=O)NCC(=O)N[C@@H](Cc3ccccc3)C(=O)N[C@@H](Cc3ccc(O)cc3)C(=O)N[C@@H](Cc3ccccc3)C(=O)N[C@@H](CC(N)=O)C(=O)N[C@@H](CCCCN)C(=O)N3CCC[C@H]3C(=O)N[C@H](C(N)=O)[C@@H](C)O)CSSC[C@@H](C(=O)N[C@@H](C)C(N)=O)NC(=O)[C@H](Cc3ccc(O)cc3)NC(=O)[C@H](CCSC)NC(=O)[C@H](CCC(=O)O)NC(=O)[C@H](CC(C)C)NC(=O)[C@H](CCCNC(=N)N)NC(=O)[C@H](CCCNC(=N)N)NC(=O)[C@H](CC(C)C)NC(=O)[C@H](CC(=O)O)NC2=O)NC1=O)C(C)C [IGF1(YL)A-1, 0^B16, 17(AlaPro)]
% of Insulin Activity (human insulin receptor; Table 8): 37.12%
insulin receptor binding (in words) (human insulin receptor; relative to native insulin): substantially reduced affinity for the insulin receptor

CC[C@H](C)[C@H](NC(=O)CN)C(=O)N[C@H](C(=O)N[C@@H](CC(=O)O)C(=O)N[C@@H](CCC(=O)O)C(=O)N[C@@H](C)C(=O)N[C@@H](C)C(=O)N[C@@H](Cc1ccccc1)C(=O)N[C@@H](CCCNC(=N)N)C(=O)N[C@@H](CO)C(=O)N[C@@H](C)C(=O)N[C@@H](CC(=O)O)C(=O)N[C@@H](CC(C)C)C(=O)N[C@@H](CCCNC(=N)N)C(=O)N[C@@H](CCCNC(=N)N)C(=O)N[C@@H](CC(C)C)C(=O)N[C@@H](CCC(=O)O)C(=O)N[C@@H](CCSC)C(=O)N[C@@H](Cc1ccc(NC(=O)CN(C)C(=O)[C@@H](N)CCCCN)cc1)C(=O)N[C@@H](C)C(=O)N[C@@H](C)C(N)=O)C(C)C [K Sar] (HELM PEPTIDE1{G.I.V.D.E.A.A.F.R.S.A.D.L.R.R.L.E.M.[O=C([C@H](Cc1ccc(N[*:3])cc1)N[*:1])[*:2]].A.A.[am]}|PEPTIDE2{K.[Sar]}$PEPTIDE1,PEPTIDE2,19:R3-2:R2$$$V2.0)
Half Life, 20% Plasma/PBS: 5.9 h

B^1(Y16,L17,Y25)29a: A^1(dLys(Ac),Sar-aF19) [MIU30]
% Activity of Insulin (human insulin receptor; incubated 0 hr in 20% plasma/PBS at 37° C.): 34.44%
% Activity of Insulin (human insulin receptor; incubated 9 hr in 20% plasma/PBS at 37° C.): 100.09%
% Activity of Insulin (human insulin receptor; incubated 95 hr in 20% plasma/PBS at 37° C.): 115.42%
% Activity of Insulin ([1]; incubated 1 hr in 20% plasma): 23.0%
% Activity of Insulin ([1]; incubated 3 hr in 20% plasma): 26.8%
% Activity of Insulin ([1]; incubated 6 hr in 20% plasma): 32.5%
% Activity of Insulin ([1]; incubated 9 hr in 20% plasma): 41.1%
% Activity of Insulin ([1]; incubated […] in 20% plasma): 43.2%
blood glucose (differential AUC vs vehicle, 8 hr) (C57/Blk mice; 90 nmol/kg): little change in glucose
blood glucose (differential AUC vs vehicle, 8 hr) (C57/Blk mice; 270 nmol/kg): glucose lowering

I: X1-GPEHLCGAHLVDALYLVCGDRGFY-NH2 / II: H-GIVDECCFRSCDLRRLEN[Phe(4-NH2)]CN-OH (disulfide I:6-II:7, I:18-II:20, II:6-II:11) [Unpegylated pNH2F, B^1Aoa2(H5, H10,Y16,L17)25a: A^1(pNH2—F19, N18, N21]
% (of insulin) [4]: 81%
% (of insulin) [5]: 48%

Reference: patent publication US8946147B2 (priority 2010, dated 2015)
